The structures appear in SMILES notation. Active and inactive are the calls of the source. Where only a bound is given, the exact number is not on record here.

Assay type in all cases: functional
Experiment [1] has as its target T1, Ubiquitin-conjugating enzyme E2 N (Homo sapiens, UniProt P61088).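 Further: Dose-response confirmation in a TR-FRET assay detecting UBC13-driven polyubiquitin chain formation, inhibition measured.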
T1 sequence (P61088 whole entry): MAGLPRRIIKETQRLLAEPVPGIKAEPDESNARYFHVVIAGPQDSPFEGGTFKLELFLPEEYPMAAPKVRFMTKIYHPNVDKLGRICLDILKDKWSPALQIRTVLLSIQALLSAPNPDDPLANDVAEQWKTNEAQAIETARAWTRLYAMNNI

For another experiment, the target named is T2, Protein skinhead-1 (Caenorhabditis elegans, UniProt P34707).
T2 sequence (P34707 whole entry): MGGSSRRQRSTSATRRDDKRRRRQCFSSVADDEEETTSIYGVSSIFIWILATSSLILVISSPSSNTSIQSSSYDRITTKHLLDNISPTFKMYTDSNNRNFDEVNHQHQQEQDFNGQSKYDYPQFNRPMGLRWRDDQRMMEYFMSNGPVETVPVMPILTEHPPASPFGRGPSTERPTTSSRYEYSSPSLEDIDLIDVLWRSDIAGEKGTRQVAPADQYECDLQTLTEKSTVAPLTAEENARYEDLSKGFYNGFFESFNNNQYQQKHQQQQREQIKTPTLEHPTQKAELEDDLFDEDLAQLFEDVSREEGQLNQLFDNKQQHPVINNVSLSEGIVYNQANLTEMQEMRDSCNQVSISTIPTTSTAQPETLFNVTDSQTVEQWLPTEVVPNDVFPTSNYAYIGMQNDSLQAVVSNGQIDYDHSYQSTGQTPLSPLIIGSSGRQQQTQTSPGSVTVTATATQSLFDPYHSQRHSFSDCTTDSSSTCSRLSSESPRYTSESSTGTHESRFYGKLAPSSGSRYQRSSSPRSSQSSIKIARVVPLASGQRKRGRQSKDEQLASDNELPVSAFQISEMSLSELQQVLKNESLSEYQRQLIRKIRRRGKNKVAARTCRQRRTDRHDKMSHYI

In experiment [2] the target is T3, High affinity choline transporter 1 (Homo sapiens, UniProt Q9GZV3).
T3 sequence (Q9GZV3 whole entry): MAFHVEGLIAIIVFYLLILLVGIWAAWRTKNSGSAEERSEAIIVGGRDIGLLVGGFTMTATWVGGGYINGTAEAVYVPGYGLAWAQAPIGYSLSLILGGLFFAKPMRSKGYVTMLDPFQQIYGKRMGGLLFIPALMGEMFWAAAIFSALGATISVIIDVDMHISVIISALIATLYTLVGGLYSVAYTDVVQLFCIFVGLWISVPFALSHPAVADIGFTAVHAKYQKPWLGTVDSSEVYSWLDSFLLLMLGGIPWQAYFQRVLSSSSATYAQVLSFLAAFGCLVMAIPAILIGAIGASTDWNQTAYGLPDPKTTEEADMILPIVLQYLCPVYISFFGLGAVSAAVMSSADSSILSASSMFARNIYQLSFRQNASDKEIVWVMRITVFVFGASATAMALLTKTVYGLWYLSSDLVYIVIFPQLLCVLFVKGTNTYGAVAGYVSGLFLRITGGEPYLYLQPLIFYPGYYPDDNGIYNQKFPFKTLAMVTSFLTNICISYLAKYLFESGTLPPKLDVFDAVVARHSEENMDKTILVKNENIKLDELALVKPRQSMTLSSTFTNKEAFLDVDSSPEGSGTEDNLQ
As to the kind of experiment: human choline transporter blockers, potency – cell-based, 5-point CRC, membrane potential dye, dose response (AID 504840).

Experiment [3] addresses T4, Heat shock factor protein 1 (Mus musculus, UniProt P38532).
T4 sequence (P38532 whole entry): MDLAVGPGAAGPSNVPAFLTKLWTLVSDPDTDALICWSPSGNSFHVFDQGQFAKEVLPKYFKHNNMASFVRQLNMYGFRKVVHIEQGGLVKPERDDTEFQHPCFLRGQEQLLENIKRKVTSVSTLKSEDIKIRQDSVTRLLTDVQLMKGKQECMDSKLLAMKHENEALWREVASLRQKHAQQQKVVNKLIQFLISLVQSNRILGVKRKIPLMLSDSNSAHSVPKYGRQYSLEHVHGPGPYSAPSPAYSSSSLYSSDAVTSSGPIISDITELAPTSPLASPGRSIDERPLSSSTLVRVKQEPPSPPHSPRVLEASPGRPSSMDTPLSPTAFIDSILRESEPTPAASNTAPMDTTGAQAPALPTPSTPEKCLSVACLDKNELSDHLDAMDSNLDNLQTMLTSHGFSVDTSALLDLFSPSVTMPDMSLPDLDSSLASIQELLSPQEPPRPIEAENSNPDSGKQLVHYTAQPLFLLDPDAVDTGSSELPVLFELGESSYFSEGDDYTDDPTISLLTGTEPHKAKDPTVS
As to the kind of experiment: decrease of HSF1-responsive luciferase luminescence – cell-based, NIH3T3, dose retest, confirmation (AID 2382).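 Further: NIH3T3 fibroblasts with HSF1-driven luciferase reporter stressed by proteasome inhibitor MG132; luminescence from HSF1-driven luciferase expression after 8 hours of MG132 stress.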

Experiment [4] can be described thus: reduction of Shn3 3'UTR-driven luciferase in osteoblasts – cell-based, Clone20 osteoblasts, firefly luciferase, cherry-picked, dose response (AID 624132).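 Further: firefly luciferase luminescence from reporter carrying the Shn3 3'UTR in osteoblasts.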
The nature of experiment [5]: non-specific 3'UTR reporter inhibition in Clone20-Shn3RL – cell-based, Renilla luciferase, cherry-picked, counter-screen for Shn3 inhibitor project, dose response (AID 624133).
Experiment [6] can be described thus: intracellular Trypanosoma cruzi inhibitors in host cells – cell-based, plate reader, cherry-pick samples, set 3, dose response (AID 651818).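 Further: compounds incubated with infected cells for about four days.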

Turning to `COc1cccc(-c2nn(C)c3sc(C(=O)NCCCN(C)Cc4ccccc4)cc23)c1`, in experiment [1], the IC50 is > 20 µM (inactive).

Consider `N=c1oc2ccccc2cc1-c1nc(-c2ccccc2)cs1`, for which the IC50 on Protein skinhead-1 is > 100 µM (inactive).

With `C/C=C(\C)CN1CCC(Oc2cccc(C(=O)NCc3ccccn3)c2)CC1`, in experiment [2], the half-inhibitory concentration (IC50) was 12.3 µM (active).

Take `CCOc1ccc(/C=C2\SC(=S)N(NC(=O)c3ccncc3)C2=O)cc1OC`: the IC50 in experiment [2] is 15.1 µM (active).

Regarding `NC(=S)N=Nc1c(O)n(CCCl)c2ccc(Cl)cc12`, the IC50 in experiment [1] was > 20 µM (inactive).

As for `Cc1ccc(C(=O)N[C@@H](C)CN2C3=NC[C@H](Cc4ccccc4)N3C[C@H]2Cc2ccc(O)cc2)cc1Br`, the IC50 in experiment [1] is > 20 µM (inactive).

For `O=C(COC(=O)CCCCCNC1=NS(=O)(=O)c2ccccc21)Nc1ccc(Cl)c(Cl)c1`, in experiment [1], the IC50 was > 20 µM (inactive).

Consider `Cc1ccc2c(c1)N(CCCC(=O)NCC1COc3ccccc3O1)C(=O)CO2` (stereo not given), for which, in experiment [2], the IC50 is 13.8 µM (active).

In the case of `CCOC(=O)Cc1csc(NS(=O)(=O)c2ccc3c4c(cccc24)C(=O)N3CC)n1`, the IC50 in experiment [2] is 4.79 µM (active).

`O=C(CCN1CCN(S(=O)(=O)c2ccc(Cl)cc2)CC1)Nc1ccc(F)cc1`: at Protein skinhead-1, the IC50 is > 100 µM (inactive).

As to `CCOc1ccc(-c2nc(-c3cccnc3)no2)cc1`, the IC50 at Protein skinhead-1 is 22.6 µM (active).

Turning to `CN(C)S(=O)(=O)c1cccc(COc2ncnc3c(Cl)cc(Cl)cc23)c1`, the IC50 in experiment [1] was > 20 µM (inactive).

On to `O=C(Nc1ccccc1C(=O)NCCCN1CCOCC1)c1ccc(F)cc1`, for which, in experiment [2], the IC50 is 7.09 µM (active).

In the case of `CCOC(=O)C(=NC1CCS(=O)(=O)C1)NNc1cc(Cl)ccc1Cl` (stereo not given), the IC50 in experiment [1] was > 20 µM (inactive).

As for `CCc1c(C)nc2cc(-c3ccccc3)nn2c1O`, the IC50 on Protein skinhead-1 was > 100 µM (inactive).

On to `O=C(Nc1ccc(S(=O)(=O)N2CCOCC2)cc1)c1ccc(Cl)cc1Cl`, for which the IC50 in experiment [2] is 13.8 µM (active). In addition, the EC50 in experiment [3] was > 195 µM (not active).

Turning to `COc1ccccc1NS(=O)(=O)c1cccc(C(=O)NNC(=O)c2ccc(Cl)nc2)c1`, the IC50 in experiment [1] was > 20 µM (inactive).

Regarding `Clc1ccc(-c2nc(-c3ccncc3)no2)c(Cl)c1`, the IC50 at Protein skinhead-1 was 6.36 µM (active).

For `CCOc1ccccc1NC(=O)COc1cccnc1[N+](=O)[O-]`, the IC50 in experiment [1] was > 20 µM (inactive).

In the case of `CCN(CC)c1ccc(C2NC(=O)c3ccccc3N2)cc1` (stereo not given), the IC50 on Protein skinhead-1 was > 100 µM (inactive).

With `O=C(O)c1ccc2ccc3ccccc3c2c1`, at Protein skinhead-1, the IC50 was > 100 µM (inactive).

For `CCCCNc1cccc2c1S(=O)(=O)N(CCCC)CC(COCc1ccccc1)O2` (stereo not given), the values for the AC50 in experiment [4] and in experiment [5] were 8.93 µM (active) and 31.7 µM (active), respectively.

Turning to `COc1ccc(S(=O)(=O)Nc2ccc3c(c2)C(=O)N([C@H](C)CO)C[C@H](C)[C@@H](CN(C)Cc2ccc(-c4ccccc4)cc2)O3)cc1`, the AC50 in experiment [6] is 3.32 µM (active).

Turning to `C[C@@H]1CCCCO[C@@H](CN(C)CC2CCCCC2)[C@@H](C)CN([C@H](C)CO)C(=O)c2cc(NC(=O)Nc3ccc4c(c3)OCO4)ccc2O1`, in experiment [6], the AC50 was 0.75 µM (active).

In the case of `C[C@H]1CN([C@@H](C)CO)C(=O)c2cccc(NC(=O)c3ccc(-c4nccs4)cc3)c2O[C@@H]1CN(C)Cc1ccc(-c2ccccc2)cc1`, the AC50 in experiment [6] was 2.93 µM (active).

Consider `C[C@@H]1CN([C@@H](C)CO)C(=O)c2cccc(NS(=O)(=O)c3ccc(F)cc3)c2O[C@@H]1CN(C)Cc1ccc(Oc2ccccc2)cc1`, for which the AC50 in experiment [6] was 7.95 µM (active).

Turning to `C[C@@H]1CCCCO[C@H](CN(C)C(=O)NC2CCCCC2)[C@@H](C)CN([C@H](C)CO)C(=O)c2cc(NC(=O)Nc3ccc(C(F)(F)F)cc3)ccc2O1`, the AC50 in experiment [6] was 4.85 µM (active).

`C[C@@H]1CN([C@H](C)CO)C(=O)Cc2cc(NC(=O)Nc3ccc(C(F)(F)F)cc3)ccc2O[C@@H]1CN(C)Cc1ccc(-c2ccccc2)cc1`: the AC50 in experiment [6] is 3.22 µM (active).

Regarding `C[C@@H]1CN([C@H](C)CO)C(=O)Cc2cc(NC(=O)Nc3ccc(F)cc3)ccc2O[C@@H]1CN(C)Cc1ccc(Oc2ccccc2)cc1`, the AC50 in experiment [6] was 2.71 µM (active).

For the molecule `COc1ccc(S(=O)(=O)N(C)C[C@@H]2Oc3c(NC(=O)c4nc5ccccc5s4)cccc3C(=O)N([C@H](C)CO)C[C@@H]2C)cc1`, the AC50 in experiment [6] was 1.17 µM (active).

For the molecule `C[C@@H]1CN([C@H](C)CO)C(=O)Cc2cc(NS(=O)(=O)c3ccccc3)ccc2O[C@@H]1CN(C)Cc1ccc(C(=O)Nc2ccccc2N)cc1`, in experiment [6], the AC50 was 3.75 µM (active).

For `C[C@H]1CN([C@@H](C)CO)C(=O)c2cccc(NC(=O)C3CCCCC3)c2O[C@H]1CN(C)Cc1ccc(C(=O)Nc2ccccc2N)cc1`, the half-maximal activity concentration (AC50) in experiment [6] was 3.38 µM (active).

In the case of `C[C@@H]1CCCCO[C@@H](CN(C)Cc2ccc(C(F)(F)F)cc2)[C@@H](C)CN([C@H](C)CO)C(=O)c2cc(NC(=O)C3CCCCC3)ccc2O1`, in experiment [6], the AC50 was 6.38 µM (active).

What is called IC50 is the concentration that inhibits the measured activity by half. A word on the EC50: it is the concentration giving half of the maximal effect. Usually AC50 stands for the midpoint of the concentration-response curve, whichever way the signal moves.

Values taken from ChEMBL document CHEMBL1201862, “PubChem BioAssay data set” (2004).
